Data set [1] has as its system Mus musculus. In words: Protective dose against maximal electroshock in mice after peroral administration. The format is functional. The following applies: po. (In general: The maximal electroshock test induces tonic seizures with an electrical stimulus.)
Data set [2] is filed under the species Mus musculus. In words: Anticonvulsant potency in mice relative to compound UK-12130 (ED50 of compound 24/compound). The format is functional.
The nature of data set [3]: pKa of the compound was determined. The format is physicochemical.
The nature of data set [4]: Partition coefficient (logP). The following applies: octanol/water. The format is physicochemical.

The structures appear in SMILES notation.

Data on 21 compounds can be found in ChEMBL document CHEMBL1121604, “Cerebrovasodilatation through selective inhibition of the enzyme carbonic anhydrase. 2. Imidazo[2,1-b]thiadiazole and imidazo[2,1-b]thiazolesulfonamides” (J Med Chem, 1980).

`NS(=O)(=O)c1nn2cc(-c3ccccc3O)nc2s1`: the ED50 in the data set with Mus musculus [1] is > 16 mg/kg. Further, the Potency ratio in the data set filed under Mus musculus [2] is <0.6.
In the case of `Br.NS(=O)(=O)c1cn2ccnc2s1`, the ED50 with Mus musculus [1] worked out at 16 mg/kg. The Potency ratio in the data set listed under Mus musculus [2] worked out at 0.7.
In turn, `Br.CCc1nc2sc(S(N)(=O)=O)nn2c1C` registered an ED50 with Mus musculus [1] of 8 mg/kg. Moreover, the Potency ratio in the data set listed under Mus musculus [2] is recorded as 1.
In the data set on Mus musculus [1], `NS(=O)(=O)c1nn2cc(-c3ccc(O)cc3)nc2s1` returned an ED50 of 10 mg/kg. Also, the Potency ratio in the data set listed under Mus musculus [2] is recorded as 0.9. This compound also registered a pKa in data set [3] of 8.16.
As to `Br.NS(=O)(=O)c1nn2cc(C34CC5CC(CC(C5)C3)C4)nc2s1`, the ED50 in the data set on Mus musculus [1] turned out to be 6 mg/kg. Besides, the Potency ratio in the data set listed under Mus musculus [2] was 1.
`NS(=O)(=O)c1nn2cc(-c3ccccc3)nc2s1` displayed an ED50 in the data set with Mus musculus [1] of 16 mg/kg. Also, the Potency ratio in the data set filed under Mus musculus [2] is given as 0.6. In data set [3], this compound gave a pKa of 7.12.
Turning to `NS(=O)(=O)c1nn2cc(-c3cccs3)nc2s1`, the ED50 in the data set on Mus musculus [1] was > 16 mg/kg. In addition, the Potency ratio in the data set listed under Mus musculus [2] was <0.4.
With `Cc1ccc(-c2cn3nc(S(N)(=O)=O)sc3n2)cc1`, in the data set on Mus musculus [1], the ED50 is > 16 mg/kg. Also, the Potency ratio in the data set listed under Mus musculus [2] was <0.6.
`CC(=O)Nc1nnc(S(N)(=O)=O)s1` [ACETAZOLAMIDE] showed a 50% effective dose (ED50) with Mus musculus [1] of 36 mg/kg.
In the case of `Br.Cc1nc2sc(S(N)(=O)=O)nn2c1C`, the 50% effect level with Mus musculus [1] (ED50) was put at a dose of 12 mg/kg. In addition, in the data set filed under Mus musculus [2], the Potency ratio turned out to be 0.6.
Compound `CC(=O)/N=c1/sc(S(N)(=O)=O)nn1C` [METHAZOLAMIDE] yielded an ED50 in the data set on Mus musculus [1] of 12 mg/kg. Moreover, the Potency ratio in the data set filed under Mus musculus [2] is reported as 0.75. Moreover, the logP in data set [4] is 0.2. In addition, in data set [3], the pKa was 7.2.
In the data set on Mus musculus [1], `CC(C)(C)c1cn2cc(S(N)(=O)=O)sc2n1` came in with an ED50 of 7 mg/kg. Further, the Potency ratio in the data set listed under Mus musculus [2] turned out to be 1.7. Besides, in data set [3], the pKa came to 8.37.
In the same order, the values of `CC(C)(C)c1cn2nc(S(N)(=O)=O)sc2n1` are 2.6 mg/kg, 3.2 and 6.94.
`CC(=O)Nc1ccc(-c2cn3nc(S(N)(=O)=O)sc3n2)cc1`: the ED50 in the data set with Mus musculus [1] is > 16 mg/kg. The Potency ratio in the data set filed under Mus musculus [2] is <0.4.
The matching figures for `Br.CCc1cn2nc(S(N)(=O)=O)sc2n1`: 5 mg/kg and 1.6.
In the same order, the values of `COc1ccc(-c2cn3nc(S(N)(=O)=O)sc3n2)cc1` are > 16 mg/kg and <0.6.
As to `NS(=O)(=O)c1nn2c(-c3ccccc3)cnc2s1`, the ED50 in the data set with Mus musculus [1] was > 16 mg/kg. For the same compound, the Potency ratio in the data set listed under Mus musculus [2] is reported as 0.4.
As for `Br.NS(=O)(=O)C1=NN2C(=NC3CCCCC32)S1` (configuration not stated), the ED50 in the data set on Mus musculus [1] was > 16 mg/kg. Also, in the data set listed under Mus musculus [2], the Potency ratio is on record as <0.5.
`Br.NS(=O)(=O)c1nn2ccnc2s1` had an ED50 in the data set on Mus musculus [1] of 8 mg/kg. For the same compound, the Potency ratio in the data set listed under Mus musculus [2] was 1.4.
In the same order, the values of `Br.Cc1cn2cc(S(N)(=O)=O)sc2n1` are 6 mg/kg and 1.3.
Compound `Br.Cc1cn2nc(S(N)(=O)=O)sc2n1` came in with an ED50 with Mus musculus [1] of 5 mg/kg. In addition, the Potency ratio in the data set filed under Mus musculus [2] is listed as 2.2.

One may read the ED50 as the dose at which the effect has come halfway, by size or by number of responders. Higher therefore signals weaker potency. By pKa is commonly meant the pH at which an ionisable group is half protonated. A word on the logP: it is the decadic logarithm of the partition coefficient of the neutral form, usually between octanol and water. High values mean higher lipophilicity, low ones lower lipophilicity.
